Data: patent publication US6632977B2 (priority 1996, dated 2003)
Read-outs that look alike come from different tables or passages of the source.

Legend:
[1] = biological target: T1, δ receptor (Mus musculus, UniProt P32300); settings: for Bmax: [3H]NTI, μ receptor gene line; for NTI Bmax: kappa receptor gene line
[2] = tested on: mixed lymphocyte reaction (MLR); settings: in vitro; cited from earlier work
[3] = biological target: T1, δ receptor; assay: biochemical
[4] = tested on: transplant rejection; settings: in vivo; cited from earlier work
[5] = tested on: adenylate cyclase; assay: Adenylate cyclase activity in brain homogenates after morphine deficiency induced by naloxone; assay type: in vivo, mice; set-up: Adenylate cyclase activity stimulated by forskolin: dose or concentration left out as unconfirmed; settings: for increase in adenylate cyclase activity in the striatum: naloxone after chronic morphine; for Adenylate cyclase activity stimulated by forskolin: FK; for Adenylate cyclase activity stimulated by forskolin / Adenylate cyclase activity, basal: chronic morphine then naloxone

T1 sequence (P32300 whole entry): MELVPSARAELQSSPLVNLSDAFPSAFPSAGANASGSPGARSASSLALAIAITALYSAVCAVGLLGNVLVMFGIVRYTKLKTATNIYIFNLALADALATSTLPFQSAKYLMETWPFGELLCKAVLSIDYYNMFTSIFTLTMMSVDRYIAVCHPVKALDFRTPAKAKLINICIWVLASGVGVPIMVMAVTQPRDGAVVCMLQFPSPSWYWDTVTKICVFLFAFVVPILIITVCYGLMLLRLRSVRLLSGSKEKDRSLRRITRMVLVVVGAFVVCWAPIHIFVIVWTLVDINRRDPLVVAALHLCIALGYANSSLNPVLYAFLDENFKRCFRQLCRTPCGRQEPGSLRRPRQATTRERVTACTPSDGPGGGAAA

Oc1ccc2c3c1O[C@H]1c4[nH]c5ccccc5c4C[C@@]4(O)[C@@H](C2)N(CC2CC2)CC[C@]314 [NTI, naltrindole]
Bmax ([1]; heterozygous +/−): 0.103 | Bmax ([1]; homozygous −/−): 0.124 | Bmax ([1]; wild +/+): 0.095 | binding curves (Scatchard) compared between genotypes ([1]; brains of +/+, +/− and −/− MOR mice): superimposable | change in binding of the delta ligands ([1]; kappa mutant animals with respect to wild animals): no change in the binding | NTI Bmax ([1]; heterozygous +/−): 0.170 pmole/mg proteins | NTI Bmax ([1]; homozygous −/−): 0.190 pmole/mg proteins | NTI Bmax ([1]; wild +/+): 0.204 pmole/mg proteins | effect on the mixed lymphocyte reaction (MLR) [2]: suppressant effect | Kd ([3]; Kd, [3H]NTI, μ receptor gene line, heterozygous +/−): 0.075 nM | Kd ([3]; Kd, [3H]NTI, μ receptor gene line, homozygous −/−): 0.082 nM | Kd ([3]; Kd, [3H]NTI, μ receptor gene line, wild +/+): 0.068 nM | Kd ([3]; NTI Kd, kappa receptor gene line, heterozygous +/−): 0.109 nM | Kd ([3]; NTI Kd, kappa receptor gene line, homozygous −/−): 0.114 nM | Kd ([3]; NTI Kd, kappa receptor gene line, wild +/+): 0.108 nM | effect on transplant rejection [4]: prevents transplant rejection

CN1CC[C@]23c4c5ccc(O)c4O[C@H]2[C@@H](O)C=C[C@H]3[C@H]1C5 [morphine]
increase in adenylate cyclase activity in the striatum ([5]; animals deficient in the μ receptor): absent | Adenylate cyclase activity stimulated by forskolin ([5]; cerebellum, μ +/+): 966 ± 55 pmoles of cyclic AMP formed/minute/mg of protein | Adenylate cyclase activity, basal ([5]; cerebellum, μ +/+): 209 ± 30 pmoles of cyclic AMP formed/minute/mg of protein | Adenylate cyclase activity stimulated by forskolin ([5]; cerebellum, μ −/−): 979 ± 73 pmoles of cyclic AMP formed/minute/mg of protein | Adenylate cyclase activity, basal ([5]; cerebellum, μ −/−): 213 ± 42 pmoles of cyclic AMP formed/minute/mg of protein | Adenylate cyclase activity stimulated by forskolin ([5]; striatum, μ +/+): 1473 ± 43 pmoles of cyclic AMP formed/minute/mg of protein | Adenylate cyclase activity, basal ([5]; striatum, μ +/+): 401 ± 22 pmoles of cyclic AMP formed/minute/mg of protein | Adenylate cyclase activity stimulated by forskolin ([5]; striatum, μ −/−): 1158 ± 108 pmoles of cyclic AMP formed/minute/mg of protein | Adenylate cyclase activity, basal ([5]; striatum, μ −/−): 304 ± 28 pmoles of cyclic AMP formed/minute/mg of protein | increase in adenylate cyclase activity in the striatum ([5]; wild mice): 30%
